Measured values taken from publication PMC11032351, “Epigenetic modulation through BET bromodomain inhibitors as a novel therapeutic strategy for progranulin-deficient frontotemporal dementia” (Scientific Reports, 2024).
pKd: −log10 of the molar value.

Experiments:
Format in all cases: binding
Recombinant BRD4(BD1) = target: T1, Recombinant BRD4(BD1) (Homo sapiens, UniProt O60885); assay: TR-FRET ligand displacement, recombinant GST-BRD4(BD1); details: for pKd: GST-tagged, with 95% confidence interval
T1 construct: using the recombinant, individually purified bromodomains of BRD4 (GST-tagged BD1 and BD2); purchased BPS Biosciences, Inc 31,040
Experimental: (§1) Unless otherwise noted, experiments were performed in white, 384-well microtiter plates (Corning 3572 or PerkinElmer ProxiPlate-384 Plus) in 30 μL or 10 μL assay volume, respectively. TR-FRET measurements were acquired on a Tecan SPARK plate reader with SPARKCONTROL software version V2.1 (Tecan Group Ltd.), with the following settings: 340/50 nm excitation, 490/10 nm (Tb), 520/10 nm (FITC) emission, 100 μs delay, and 400 μs integration. The 490/10 and 520/10 nm emission channels were acquired with a 50% mirror and a dichroic 510 mirror, respectively, using independently optimized detector gain settings unless specified otherwise. The TR-FRET ratio was taken as the 520/490 nm intensity ratio on a per-well basis.
Assays were performed as described. Recombinant BRD4(BD1) and BRD4(BD2) were purchased from BPS Biosciences, Inc and Epicypher, Inc (GST-BRD4(BD1), 31,040; GST-BRD4(BD2), 15–0013, respectively). Recombinant bromodomains were diluted to 0.5 nM in assay buffer (25 mM HEPES, 150 mM NaCl, 0.5 mg/mL BSA, 0.005% TWEEN-20, pH 7.5) with 2 nM CoraFluor-1-labeled GST VHH (ChromoTek ST-250), then JQ1-FITC was added in serial dilution (cmax = 100 nM) using an HP D300 digital dispenser and allowed to equilibrate for 2 h at room temperature before TR-FRET measurements were taken. Nonspecific signal was determined with 50 μM JQ1-Acid, and data were fitted to a One Site–Specific Binding model in Prism 9. The KD determined from the one-site model was then used in Eq. 1 to adjust for a two-site model due to the dimeric GST protein:1 KD,2-site=KD,1-site×(1+2)
(§2) The following assay parameters have been used: (i) 4 nM GST-BRD4(BD1), 4 nM CoraFluor-labeled GST VHH, 20 nM JQ1-FITC in assay buffer, (ii) 4 nM GST-BRD4(BD2), 4 nM CoraFluor-labeled GST VHH, 20 nM JQ1-FITC in assay buffer, (iii) HEK293T or NPC cell lysate at 0.8 mg/mL total protein, 1 nM rabbit anti-BRD4 antibody, 2 nM CoraFluor-labeled anti-rabbit Nano-Secondary, 20 nM JQ1-FITC. For all experiments, test compounds were added in serial dilution (cmax = 10 μM) using an HP D300 digital dispenser and allowed to equilibrate for 2 h at room temperature before TR-FRET measurements were taken. The assay floor (background) was defined with the 10 μM mivebresib dose, and the assay ceiling (top) was defined via a no-inhibitor control. Data were fitted to a four-parameter dose–response model in Prism 9.
(§3) For TR-FRET ligand displacement assays with recombinant bromodomains, we have determined the KD of the respective fluorescent tracer (JQ1-FITC) under each assay condition. For endogenous BRD4 in whole cell extract, we have determined the KD,app of JQ1-FITC under each assay condition. Inhibitor KD and KD,app values have been calculated using Cheng-Prusoff principles, outlined in Eq. 2 below:2 KDorKD,app=IC50/1+[S]/KX where IC50 is the measured IC50 value, [S] is the concentration of fluorescent tracer, and KX is the KD or KD,app of the fluorescent tracer for a given condition.

[1] = target: T2, Endogenous BRD4 (HEK293T) (Homo sapiens, UniProt O60885); assay: CoraFluor TR-FRET ligand displacement, endogenous BRD4 in HEK293T lysate; details: with 95% confidence interval, read-out: Endogenous BRD4 (HEK293T), KD,app
T2 construct: target engagement toward endogenous BRD4 derived from cellular lysates of cell types of interest; endogenous in cells; host or cells: HEK293T
Experimental: (§4) A cell pellet from one 15 cm dish (~ 25 M cells) of HEK293T cells, or from one confluent T-75 flask 8330-8 NPC cells (~ 9 M cells), was allowed to thaw on ice and cells were suspended in 400 μL lysis buffer (25 mM HEPES, 150 mM NaCl, 0.2% (v/v) Triton X-100, 0.02% (v/v) TWEEN-20, pH 7.5 supplemented with 2 mM DTT and one Roche cOmplete, Mini, EDTA-free protease inhibitor cocktail tablet (Sigma 11,836,170,001) per 7 mL. Cells were homogenized via passage through a 27.5-gauge needle 5 times, and the resulting mixture was incubated with slow, end-over-end mixing at 4 °C for 15 min. The lysate was clarified via centrifugation at 16,100 × g for 10 min at 4 °C then 800 μL (1:3 dilution) dilution buffer (25 mM HEPES, 150 mM NaCl, 0.005% (v/v) TWEEN-20, pH 7.5) was added and the lysate was re-clarified at 16,100 × g for 10 min at 4 °C. Total protein was quantified via detergent-compatible Bradford assay (ThermoFisher 23,246). The lysate was used fresh or flash-frozen in liquid nitrogen and stored at − 80 °C in single-use aliquots.
as §1
(§5) For the profiling of endogenous BRD4, cell lysates as prepared above were diluted to 0.8 mg/mL total protein in 1:3 lysis buffer:dilution buffer with 0.5 nM rabbit anti-BRD4 antibody (Cell Signaling Technology; E2A7X) and 1 nM CoraFluor-1-labeled anti-rabbit Nano-Secondary (ChromoTek CTK0101). JQ1-FITC was added in serial dilution (cmax = 200 nM) using an HP D300 digital dispenser and allowed to equilibrate for 2 h at room temperature before TR-FRET measurements were taken. Nonspecific signal was determined with 50 μM JQ1-Acid, and data were fitted to a One Site–Specific Binding model in Prism 9. The KD,app determined from the one-site model was then adjusted for a two-site model using Eq. 1.
as §2, §3

Endogenous BRD4 (NPC) = target: T3, Endogenous BRD4 (NPC) (Homo sapiens, UniProt O60885); assay: CoraFluor TR-FRET ligand displacement, endogenous BRD4 in NPC lysate; details: with 95% confidence interval, read-out: Endogenous BRD4 (NPC), KD,app
T3 construct: target engagement toward endogenous BRD4 derived from cellular lysates of cell types of interest; endogenous in cells; host or cells: 8330-8 human iPSC-derived neural progenitor cells
Experimental: as §4, §1, §5, §2, §3

| SMILES | pKd (Recombinant BRD4(BD1)) | pKd [1] | pKd (Endogenous BRD4 (NPC)) | selectivity for BD1 over BD2 (Recombinant BRD4(BD1); recombinant BRD4 BD1 vs BD2) |
| --- | --- | --- | --- | --- |
| Cn1cc(-c2cccnc2Oc2ccc(F)c(F)c2)c2cc[nH]c2c1=O [Compound 81A, 4-(2-(3,4-difluorophenoxy)pyridin-3-yl)-6-methyl-1,6-dihydro-7H-pyrrolo[2,3-c]pyridin-7-one] | 7.54 | 7.52 | 7.49 |  |
| Cn1cc(-c2cccnc2Nc2ccc(F)cc2)c2cc[nH]c2c1=O [Compound 85A, 4-(2-((4-fluorophenyl)amino)pyridin-3-yl)-6-methyl-1,6-dihydro-7H-pyrrolo[2,3-c]pyridin-7-one] | 7.12 | 7.03 | 7.00 | ~ 5.5 fold |
| Cn1cc(-c2cccnc2Sc2ccc(F)cc2)c2cc[nH]c2c1=O [Compound 84A, 4-(2-((4-fluorophenyl)thio)pyridin-3-yl)-6-methyl-1,6-dihydro-7H-pyrrolo[2,3-c]pyridin-7-one] | 6.52 | 6.43 | 6.42 |  |
| Cn1cc(-c2cccnc2Oc2cc(F)cc(F)c2)c2cc[nH]c2c1=O [Compound 82A, 4-(2-(3,5-difluorophenoxy)pyridin-3-yl)-6-methyl-1,6-dihydro-7H-pyrrolo[2,3-c]pyridin-7-one] | 7.39 | 7.31 | 7.35 |  |
| Cn1ccc2c(-c3cc(F)cnc3Oc3ccc(F)cc3)c[nH]c2c1=O [Compound 86B, 3-(5-fluoro-2-(4-fluorophenoxy)pyridin-3-yl)-6-methyl-1,6-dihydro-7H-pyrrolo[2,3-c]pyridin-7-one] | 5.58 | 5.15 | 5.23 |  |
| Cn1ccc2c(-c3cccnc3Oc3ccc(F)cc3)c[nH]c2c1=O [Compound 18B, 3-[2-(4-fluorophenoxy)pyridin-3-yl]-6-methyl-1,6-dihydro-7H-pyrrolo[2,3-c]pyridin-7-one] | 7.34 | 6.92 | 6.88 |  |
| Cn1ccc2c(-c3cccnc3Sc3ccc(F)cc3)c[nH]c2c1=O [Compound 84B, 3-(2-((4-fluorophenyl)thio)pyridin-3-yl)-6-methyl-1,6-dihydro-7H-pyrrolo[2,3-c]pyridin-7-one] | 7.37 | 6.71 | 6.71 |  |
| Cn1ccc2c(-c3cccnc3Oc3ccc(F)c(F)c3)c[nH]c2c1=O [Compound 81B, 3-(2-(3,4-difluorophenoxy)pyridin-3-yl)-6-methyl-1,6-dihydro-7H-pyrrolo[2,3-c]pyridin-7-one] | 6.90 | 6.27 | 6.27 |  |
| Cn1cc(-c2cc(F)cnc2Oc2ccc(F)cc2)c2cc[nH]c2c1=O [Compound 86A, 4-(5-fluoro-2-(4-fluorophenoxy)pyridin-3-yl)-6-methyl-1,6-dihydro-7H-pyrrolo[2,3-c]pyridin-7-one] | 6.77 | 6.25 | 6.25 |  |
| Cn1cc(-c2cccnc2Oc2ccc(F)cc2)c2cc[nH]c2c1=O [Compound 18A, 4-(2-(4-fluorophenoxy)pyridin-3-yl)-6-methyl-1H-pyrrolo[2,3-c]pyridin-7(6H)-one] | 7.55 | 7.36 | 7.34 |  |
| Cn1ccc2c(-c3cccnc3Nc3ccc(F)cc3)c[nH]c2c1=O [Compound 85B, 3-(2-((4-fluorophenyl)amino)pyridin-3-yl)-6-methyl-1,6-dihydro-7H-pyrrolo[2,3-c]pyridin-7-one] | 6.02 | 5.41 | 5.42 |  |
| Cn1ccc2c(-c3cccnc3Oc3cc(F)cc(F)c3)c[nH]c2c1=O [Compound 82B, 3-(2-(3,5-difluorophenoxy)pyridin-3-yl)-6-methyl-1,6-dihydro-7H-pyrrolo[2,3-c]pyridin-7-one] | 6.83 | 6.28 | 6.37 |  |
